Several values for one entry are separate records, joined by “and”; a condition that tells them apart may be missing. Identical values can stand only once.
What was measured:
Format in all cases: in vivo
[1] = test system: RenTG/L-NAME-supplemented male rats; test: RenTG rat model: survival rate assessment in male rats (B-1.1); settings: for mortality: placebo 58%
Protocol: (§1) Male and female rennin-transgenic rats [TG(mRRen2)27] (RenTG rats) at the age of 8 weeks were used. Rats were randomized in groups with 12-24 rats/group. All groups were then chronically supplemented with L-NAME administrated via drinking water (30-50 mg/l). The L-NAME was dissolved in tap water and stored by room temperature. All groups were treated via oral gavage with either placebo/vehicle consisting of 10% transcutol, 20% cremophor and 70% tap water or different doses of the respective verum. The verum was dissolved in the vehicle and prepared freshly before administration. Study duration with concomitant L-NAME administration and treatment was up to 12 weeks. The baseline blood pressure was measured via tail-cuff method before the start of the treatment and after different time points during the study. Mortality and body weight were assessed on a daily basis. Urine samples were collected via the use of metabolic cages and urine was collected over a period of six hours to quantify proteinuria as correlate of kidney function and different urinary biomarkers for kidney and organ damage. At the end of the study all animals were kept in depth narcotic and bled via aortic puncture and sacrificed by permanent inhaled isoflurane, blood was taken in order to assess plasma parameters, and heart and kidney were weighed and harvested for histopathological evaluation.
The survival rate in % of the RenTG/L-NAME-supplemented male rats treated with either placebo, or 1, 3 and 10 mg/kg runcaciguat (example 1) BID was investigated (see table 1).

[2] = test system: RenTG/L-NAME-supplemented male rats; test: RenTG rat model: kidney function by proteinuria (uPCR) in male rats (B-1.2); settings: for uPCR % (normalized to placebo): placebo set as 100%
Protocol: as §1
Urinary protein to creatinine ratio in the RenTG/L-NAME-supplemented male rats treated with either placebo (set as 100%) or with 1, 3 and 10 mg/kg example 1 (runcaciguat) BID was investigated (see table is 2).

[3] = test system: RenTG/L-NAME-supplemented female rats; test: RenTG rat model: survival rate assessment in female rats (B-1.3); settings: 3 mg/kg BID, placebo 64.3%
Protocol: as §1, with “evaluation. […]” for “evaluation.”

[4] = test system: RenTG/L-NAME-supplemented female rats; test: RenTG rat model: kidney function by proteinuria (uPCR) in female rats (B-1.4); settings: 3 mg/kg BID; for uPCR % (normalized to placebo): placebo set as 100%
Protocol: as §1
Urinary protein to creatinine ratio in the RenTG/L-NAME-supplemented female rats treated with either placebo (set as 100%) or 3 mg/kg example 1 BID or example 3 BID respectively. Data are mean±SEM.

[5] = test system: RenTG/L-NAME-supplemented male, female and female OVX rats; test: RenTG rat model: survival rate in male, female and female ovariectomized (OVX) rats, head-to-head, OD dosing (B-1.5); settings: for % survival: 3 mg/kg OD
Protocol: as §1
In male rat 93% of rats survived whereas in female rats all the rats survived in the sGC activator treatment arm (100%). There was no difference in survival rates in female OVX rats compared to non-OVX rats.

[6] = test system: RenTG/L-NAME-supplemented male, female and female OVX rats; test: RenTG rat model: proteinuria (uPCR) in male, female and female OVX rats, OD dosing (B-1.6); settings: for Urinary protein to creatinine ratio: 3 mg/kg OD, placebo 100; for reduction of proteinuria: OD
Protocol: as §1
The most striking differences between male and female were seen on proteinuria. […] In female rats these effects were much more pronounced, and proteinuria was reduced by 88% and by 99% in female rats without OVX and with OVX, respectively.

C[C@H]([C@H](C(=O)Nc1cc([C@@H](CC(=O)O)C2CC2)ccc1Cl)c1ccc(Cl)cc1)C(F)(F)F [Example 1, (3S)-3-(4-chloro-3-{[(2S,3R)-2-(4-chlorophenyl)-4,4,4-trifluoro-3-methylbutanoyl]amino}phenyl)-3-cyclopropylpropanoic acid]
lower survival of male compared to female rats ([1]; 3 mg/kg BID, male rats at the point of 64% control survival vs female rats): 30%
% survival ([1]; male rats, 1 mg/kg BID p.o.): 44%
mortality ([1]; male rats, 1 mg/kg BID p.o.): 56%
survival rate at the point when 64% of the male control animals were still alive ([1]; male rats, 3 mg/kg BID): 70%
statistical evaluation of mortality reduction ([1]; male rats, 3 mg/kg BID p.o.): strong numerical trend
% survival ([1]; male rats, 3 mg/kg BID p.o., 3 mg/kg): 60% and 61%
mortality ([1]; male rats, 3 mg/kg BID p.o.): 39%
% survival ([1]; male rats, 10 mg/kg BID p.o.): 72%
statistical evaluation of mortality reduction ([1]; male rats, 10 mg/kg BID p.o.): reached statistical significance
mortality ([1]; male rats, 10 mg/kg BID p.o.): 28%
effect on survival rates ([1]; male rats, 1, 3 and 10 mg/kg BID p.o.): dose-dependently increased the survival rates
reduction of proteinuria ([2]; 1 mg/kg BID): 15%
uPCR % (normalized to placebo) ([2]; 1 mg/kg BID): 85.4%
reduction of proteinuria ([2]; 3 mg/kg BID): 29%
statistical evaluation of proteinuria reduction ([2]; 3 mg/kg BID): statistically significant
uPCR % (normalized to placebo) ([2]; 3 mg/kg BID): 71.1%
reduction of proteinuria ([2]; 10 mg/kg BID): 39%
statistical evaluation of proteinuria reduction ([2]; 10 mg/kg BID): statistically significant
uPCR % (normalized to placebo) ([2]; 10 mg/kg BID): 60.6%
% survival [3]: 100%
reduction of proteinuria [4]: 55%
uPCR % (normalized to placebo) [4]: 44.5%

CC(C)CN1CCN(c2ccc(-c3ccc(Cl)cc3N3CCC[C@@H](n4ncc(C(=O)O)c4C(F)F)C3)cc2)CC1 [Example 3, 1-{3(R)-1-[4-Chloro-4′-(4-isobutylpiperazin-1-yl)[biphenyl]-2-yl]piperidin-3-yl}-5-(difluoromethyl)-1H-pyrazole-4-carboxylic acid]
% survival ([3]; 3 mg/kg): 92,3%
reduction of proteinuria [4]: 84%
uPCR % (normalized to placebo) [4]: 16.4%
% survival ([5]; female OVX rats, placebo 40%): 100%
% survival ([5]; female rats, placebo 47%): 100%
% survival ([5]; male rats, placebo 60%): 93%
survival rate in male rats lower than in female rats ([5]; once daily dosing (OD)): 7%
survival rates in female OVX rats compared to non-OVX rats ([5]; once daily dosing (OD)): no difference
Urinary protein to creatinine ratio ([6]; female OVX rats): 1
reduction of proteinuria ([6]; female rats with OVX): 99%
reduction of proteinuria ([6]; female rats without OVX): 88%
Urinary protein to creatinine ratio ([6]; female rats): 12
Urinary protein to creatinine ratio ([6]; male rats): 43
reduction of proteinuria ([6]; male rats): 57%

Reference: patent US20260248781A1, “SOLUBLE GUANYLATE CYCLASE ACTIVATORS FOR USE IN THE TREATMENT OF HEART FAILURE WITH PRESERVED EJECTION FRACTION IN WOMEN” (BAYER AKTIENGESELLSCHAFT, priority 2022, published 2026)
